This note sets out measurements from patent publication EP4692072A1, “PHOTOCHROMIC COMPOUND, PROPARGYL ALCOHOL COMPOUND, CURABLE COMPOSITION, OPTICAL ARTICLE, LENS, AND SPECTACLES” (TOKUYAMA CORPORATION, priority 2023, dated 2024).

Structures are written as SMILES.

The nature of series [1]: Accelerated deterioration (xenon weather meter X25, 120 hours) of photochromic laminate prepared by coating method. It counts as physicochemical. The following applies: 0.25 mmol per 100 g monomers, A120/A0×100 after 120 hours xenon weather meter. Put shortly: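 Photochromic compound at 0.25 mmol per 100 g of methacrylate monomers, spin-coated as a 40 µm layer on a primed 1.60-index thiourethane lens, then light-cured and heated at 110°C for 1 h. Color optical density at λmax (23°C, 300 s irradiation) measured before (A0) and after 120 h xenon exposure (A120). Residual rate = A120/A0×100.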

Series [2] in a line: Photochromic properties of photochromic cured product prepared by kneading method. It counts as physicochemical. The following applies: 0.106 mmol per 100 g monomer; for A23: 1 mm cured product, 23°C color optical density ε(300)-ε(0); for Maximum absorption wavelength: 1 mm thiourethane cured product, after color development. As for the experimental part:
• [1] Maximum Absorption Wavelength (λmax): The maximum absorption wavelength after color development, measured using a spectrophotometer (instantaneous multichannel photodetector MCPD3000) manufactured by Otsuka Electronics Co., Ltd. was used as an indicator for the color tone during the color development. • [2] 23°C Color Optical Density (A23): A difference between an absorbancy measured after light irradiation at 23°C for 300 seconds {ε(300)} and an absorbancy without light irradiation ε(0) at the maximum absorption wavelength was used as an indicator for the color optical density. […] 23°C color fading half-life [τ1/2 (sec.)]: A time required for the absorbancy of the sample at the maximum absorption wavelength to decrease to 1/2 of {ε(300)-ε(0)} when the light irradiation was terminated after the light irradiation at 23°C for 300 seconds, was used as an indicator for the color fading speed. The shorter this time, the higher the color fading speed. • [4] Residual rate (A120/A0×100): The obtained photochromic plastic lens was subjected to accelerated deterioration using a xenon weather meter X25 manufactured by Suga Test Instruments Co., Ltd. for 120 hours. Subsequently, the color optical density was evaluated before and after the test, then a color optical density before the test (A0) and a color optical density after the test (A120) were measured, and a ratio (A120/A0) was defined as a residual rate. The residual rate was used as an indicator for a color developing durability. The higher the residual rate, the higher the color developing durability. The results of Examples 26, 50, and Comparative Examples 1 to 8 are summarized in Table 1, and the results of Examples 27 to 49 are summarized in Tables 2 and 3.
First, the photochromic compound obtained in Example 1, additives, and a polymerizable compound were mixed to obtain a curable composition.
As the polymerizable compound, a combination of the following polymerizable monomers was used. • 1,3-bis(isocyanatomethyl)cyclohexane: 36.7 parts by mass Pentaerythritol tetrakis(3-mercaptopropionate): 39.4 parts by mass • Polyoxyethylene polyoxypropylene lauryl ether (Wonder Surf 140 manufactured by Aoki Oil Industrial Co., Ltd.): 17.4 parts by mass • 1-decanethiol: 2.8 parts by mass • RX-1 adjusted according to the method described in Patent Document 13: 3.8 parts by mass
Note that the photochromic compound was added to the curable composition so that the amount of the photochromic compound was 0.106 mmol based on 100 g of the total amount of the polymerizable monomer. The following additives were used: Dimethyltin dichloride • : 0.05 part by mass • Irganox 245: 0.1 part by mass • 2-ethylhexyl 4-methoxycinnamate: 0.6 part by mass
The prepared curable composition was thoroughly defoamed, then injected into a glass mold having a 1 mm gap, and polymerized by cast polymerization. The polymerization was carried out in an air furnace while gradually raising the temperature from 27°C to 120°C over 18 hours. After the polymerization, the cured product was removed from the glass mold to obtain a photochromic cured product having a thickness of 1 mm. The obtained photochromic cured product was evaluated in the same manner as in Example 26.
(Examples 85 to 99, and Comparative Example 14 to 18) Photochromic cured products were prepared using photochromic compounds presented in Tables 6 and 7 in the same manner as in Example 84. The results of Examples 84 and 85 and Comparative Examples 14 to 18 are summarized in Table 6, and the results of Examples 86 to 99 are summarized in Table 7.

For the compound `CCC1(CC)CCC2(CC1)c1cc(OC(F)(F)F)ccc1-c1c2c2c(c3cc(OC)ccc13)OC(c1ccc(N(C)c3ccccc3)cc1)(c1ccc(OC)c(C)c1)C=C2` (stereo not shown) [Example 16], the Residual rate in series [1] is listed as 57%. For the same compound, in series [2], the A23 is given as 0.47 - and the Maximum absorption wavelength is listed as 475 nm. Also, in series [2] (listed as Formula (77)), the A23 is 0.86 - and the Maximum absorption wavelength is reported as 593 nm.
For the compound `CCCC1(CCC)c2ccccc2-c2c1c1c(c3cc(OC)c(-c4ccc(OC)cc4OC)cc23)OC(c2ccc(C)cc2)(c2ccc(N(C)c3ccccc3)cc2)C=C1` (stereo not shown) [Example 19], in series [1], the Residual rate is given as 64%. In series [2], the A23 is 0.87 - and the Maximum absorption wavelength was determined as 496 nm. In series [2] (listed as Formula (80)), the A23 is 1.15 - and the Maximum absorption wavelength is on record as 610 nm.
For the compound `CCCCC1(CCCC)c2cc(-c3ccc(OC(C)C)cc3)ccc2-c2c1c1c(c3cc(OC)ccc23)OC(c2ccc(N(C)c3ccccc3)cc2)(c2ccc(OC)c(F)c2)C=C1` (stereo not shown) [Example 21], the Residual rate in series [1] was determined as 60%. Moreover, the A23 in series [2] is 0.62 -; in series [2] (listed as Formula (83)), 1.25 -. In addition, the Maximum absorption wavelength in series [2] is reported as 490 nm; in series [2] (listed as Formula (83)), 616 nm.
Regarding `CCCC1(CCC)c2ccccc2-c2c1c1c(c3cc(OC)c(-c4ccc(N(C)c5ccccc5)cc4)cc23)OC(c2ccc(C)cc2)(c2ccc(N(C)c3ccccc3)cc2)C=C1` (stereo not shown) [Example 24], in series [1], the Residual rate is 62%. Also, the figures for the A23 in series [2] and in series [2] (listed as Formula (86)) were 1.32 - and 1.31 -, respectively. Also, the Maximum absorption wavelength in series [2] was found to be 505 nm; in series [2] (listed as Formula (86)), 607 nm.
On to `CCN(c1ccc(OC)cc1)c1ccc(C2(c3ccc(OC)cc3)C=Cc3c4c(c5cc(-c6ccc(N7CCOCC7)cc6)c(OC)cc5c3O2)-c2ccccc2C4(C)C)cc1` (stereo not shown) [Example 25], for which the Residual rate in series [1] came to 63%. The A23 in series [2] is on record as 0.88 -; in series [2] (listed as Formula (88)), 0.96 -. Besides, the Maximum absorption wavelength in series [2] is 505 nm; in series [2] (listed as Formula (88)), 613 nm.
`COCCOCCOCCOCCC1(CCOCCOCCOCCOC)c2cc(C(F)(F)F)ccc2-c2c1c1c(c3cc(OC)c(OC)cc23)OC(c2ccc(OC)cc2)(c2ccc(N(C)c3ccccc3)cc2)C=C1` (stereo not shown) [Example 51] gave a Residual rate in series [1] of 60%. For the same compound, the A23 in series [2] is given as 0.46 -; in series [2] (listed as Formula (89)), 0.45 -. For the same compound, the Maximum absorption wavelength is recorded as 486 nm in series [2] and 612 nm in series [2] (listed as Formula (89)).
As to `CCCC1(CCC)c2cc(OC(F)(F)F)ccc2-c2c1c1c(c3cc(OC)c(Sc4c(C)cccc4C)cc23)OC(c2ccc(N(C)c3ccccc3)cc2)(c2ccc(OC)c(OC)c2)C=C1` (stereo not shown) [Example 57], the Residual rate in series [1] turned out to be 65%. The A23 was 0.86 - in series [2] and 0.88 - in series [2] (listed as Formula (110)). Also, the Maximum absorption wavelength in series [2] was determined as 496 nm; in series [2] (listed as Formula (110)), 625 nm.
For the compound `COCCCCC1(CCCCOC)c2ccccc2-c2c1c1c(c3cc(-c4ccc(OC)cc4OC)c(OC)cc23)OC(c2ccc(N(C)c3ccccc3)cc2)(c2ccc3c(c2)CCO3)C=C1` (stereo not shown) [Example 62], the Residual rate in series [1] came out at 61%. In series [2], the A23 is reported as 1.02 - and the Maximum absorption wavelength is 479 nm. Further, in series [2] (listed as Formula (124)), the A23 was 1.11 - and the Maximum absorption wavelength amounted to 594 nm.
